Results taken from publication PMC4961418, “A Selective Irreversible Inhibitor of Furin Does Not Prevent Pseudomonas Aeruginosa Exotoxin A-Induced Airway Epithelial Cytotoxicity” (PLoS ONE, 2016).
Side chains are listed from the residue outwards. Peptide text beside a SMILES is read from it. * marks the point of attachment. Biotin = O=C1N[C@H]2[C@H](CS[C@H]2CCCCC(=O)*)N1; X1 = N=C(N)NCCCC(N*)P(=O)(Oc1ccccc1)Oc1ccccc1; Palmitoyl = CCCCCCCCCCCCCCCC(=O)*; Ahx = NCCCCCC(=O)O

Legend:
recombinant human furin [1] = molecular target: T1, recombinant human furin (Homo sapiens, UniProt P09958); assay: Western blot with streptavidin-HRP of inhibitor-furin complex; format: binding; conditions: QUB-F1 100 μM, furin 0.4 μg, reducing and denaturing conditions
T1 construct: purchased R&D Systems
Method: Recombinant human furin (0.4 μg) was incubated with QUB-F1 (100 μM) for 45 minutes at 37°C. The sample was then denatured and reduced in Laemmli treatment buffer for 5 minutes at 95°C, resolved by SDS-PAGE, before transfer onto a nitrocellulose membrane which was blocked with a solution of Tris-buffered saline (TBS) containing 3% (w/v) bovine serum albumin and 0.1% (v/v) Tween-20. The membrane was subsequently probed with a streptavidin-Horseradish peroxidase conjugate (1:10,000) (Vector-Laboratories) in blocking solution for 1 h prior to detection by chemiluminescence (Luminata Forte Western HRP substrate (Millipore)).
Fig 1 Irreversible inhibition and visualization of recombinant human furin by QUB-F1. […] The inhibitor-proteases complex can be visualized using streptavidin-HRP, which detects the biotin reporter group on the compound.

recombinant human furin [2] = molecular target: T1, recombinant human furin; assay: Second order rate constant determination, steady-state fluorimetric assay (pERTKR-NH2Mec); format: biochemical; conditions: irreversible inhibitor kinetics, 50 μM pERTKR-NH2Mec, 37°C, pH 7.4
Method: A range of final inhibitor concentrations (at least 5) were prepared from a 10 mM stock solution of QUB-F1 (in N,N-dimethyformamide (DMF)). The fluorogenic substrate, p-Glu-Arg-Thr-Lys-Arg-NH2Mec (pERTKR-AMC), was diluted in assay buffer (25 mM Tris/HCl containing 1 mM CaCl2, pH 7.4) and used at a fixed concentration of 50 μM throughout. All inhibition assays were performed in microtitre plates maintained at 37°C in a final volume of 100 μl. The reaction was initiated by the addition of recombinant human furin (0.01 μg/well) and the rate of substrate hydrolysis continuously recorded at λex 360 nm, λem 480 nm, over a period of 90 minutes using a FLUOstar Optima microplate reader (BMG Labtech). The resultant inhibition progress curve for QUB-F1 was then analysed according to the kinetic models developed by Tian and Tsou and Walker and Elmore, for irreversible inhibitors, using GRAFIT (Erithacus Software). The inhibitor constant Ki, the apparent first order rate constant k3, and over all second-order rate constant (k3/Ki) for QUB-F1 against furin was determined, from a plot of 1/A against [I] (where A is the apparent second-order rate constant for irreversible inhibition determined for each inhibitor concentration [I]). The determination of Km and Vmax were also determined separately by fitting initial rates of hydrolysis to substrate concentration, according to Michaelis-Menten kinetics, also using GRAFIT (Erithacus Software). The inhibitor constant Ki, the apparent first order rate constant k3, and the overall second-order rate constant (k3/Ki) for QUB-F1 against furin were determined, from a plot of 1/A against [I] (where A is the apparent second-order rate constant for irreversible inhibition determined for each inhibitor concentration [I]).
The ability of QUB-F1 to inhibit recombinant human furin was assessed using a steady-state fluorimetric assay employing the cognate fluorescent substrate (pERTKR-NH2Mec). The k3, Ki and k3/Ki values where determined as follows: Ki 9.33 (± 0.32) x 10^−7 M, k3 0.016 (± 0.004) min^-1 and k3/Ki […] M^-1 min^-1. […]

trypsin = assay: Fluorogenic protease activity assay, trypsin; format: biochemical, human; conditions: 10 μM inhibitor, Z-Gly-Gly-Arg-NH2Mec 50 μM, N = 3
Source text: (§1) Recombinant human enzymes were sourced as follows: furin and matriptase (R&D Systems); prostasin (Sino Biological); trypsin and chymotrypsin (Sigma-Aldrich); factor Xa and neutrophil elastase (Merck Millipore) and proteinase-3 and cathepsin G (Elastin Products, Missouri). Fluorogenic substrates were sourced as follows: p-Glu-Arg-Thr-Lys-Arg-NH2Mec and Boc-Gln-Ala-Arg-NH2Mec (R&D Systems); Boc-Ile-Glu-Gly-Arg-NH2Mec (Bachem); Z-Gly-Gly-Arg-NH2Mec, MeOSuc-Ala-Ala-Pro-Val-NH2Mec and Suc-Ala-Ala-Pro-Phe-NH2Mec (Sigma-Aldrich). All chemicals and reagents for the synthesis of QUB-F1 were supplied by Sigma-Aldrich unless otherwise indicated. Fmoc-Lys(Boc)-SASRIN resin was sourced from Bachem. Fmoc-protected amino acids and HCTU were supplied by Merck Millipore.
(§2) Recombinant protease activities were assessed using the cognate fluorogenic substrates (final concentration 50 μM) as follows: trypsin (Z-Gly-Gly-Arg-NH2Mec), prostasin and matriptase (Boc-Gln-Ala-Arg-NH2Mec), factor Xa (Boc-Ile-Glu-Gly-Arg-NH2Mec), neutrophil elastase and proteinase 3 (MeO-Suc-Ala-Ala-Pro-Val-NH2Mec), chymotrypsin and cathepsin G (Suc-Ala-Ala-Pro-Phe-NH2Mec). The rate of substrate hydrolysis in the presence or absence of furin inhibitors was assessed by continuous recording at λex 360 nm, λem 480 nm, over a period of 60 minutes using a FLUOstar Optima microplate reader (BMG Labtech). […]

neutrophil elastase = molecular target: T2, neutrophil elastase (Homo sapiens, UniProt P08246); assay: Fluorogenic protease activity assay, neutrophil elastase; format: biochemical; conditions: 10 μM inhibitor, MeO-Suc-Ala-Ala-Pro-Val-NH2Mec 50 μM, N = 3
T2 construct: purchased Merck Millipore
T2 sequence (P08246 30-267): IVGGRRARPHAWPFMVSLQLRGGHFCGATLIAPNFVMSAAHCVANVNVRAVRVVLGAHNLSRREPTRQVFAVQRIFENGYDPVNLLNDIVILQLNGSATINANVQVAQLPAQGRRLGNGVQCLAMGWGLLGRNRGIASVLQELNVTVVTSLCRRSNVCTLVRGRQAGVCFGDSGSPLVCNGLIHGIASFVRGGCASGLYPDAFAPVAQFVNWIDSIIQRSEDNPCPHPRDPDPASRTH
Source text: as §1, §2

T1 sequence (P09958 108-794): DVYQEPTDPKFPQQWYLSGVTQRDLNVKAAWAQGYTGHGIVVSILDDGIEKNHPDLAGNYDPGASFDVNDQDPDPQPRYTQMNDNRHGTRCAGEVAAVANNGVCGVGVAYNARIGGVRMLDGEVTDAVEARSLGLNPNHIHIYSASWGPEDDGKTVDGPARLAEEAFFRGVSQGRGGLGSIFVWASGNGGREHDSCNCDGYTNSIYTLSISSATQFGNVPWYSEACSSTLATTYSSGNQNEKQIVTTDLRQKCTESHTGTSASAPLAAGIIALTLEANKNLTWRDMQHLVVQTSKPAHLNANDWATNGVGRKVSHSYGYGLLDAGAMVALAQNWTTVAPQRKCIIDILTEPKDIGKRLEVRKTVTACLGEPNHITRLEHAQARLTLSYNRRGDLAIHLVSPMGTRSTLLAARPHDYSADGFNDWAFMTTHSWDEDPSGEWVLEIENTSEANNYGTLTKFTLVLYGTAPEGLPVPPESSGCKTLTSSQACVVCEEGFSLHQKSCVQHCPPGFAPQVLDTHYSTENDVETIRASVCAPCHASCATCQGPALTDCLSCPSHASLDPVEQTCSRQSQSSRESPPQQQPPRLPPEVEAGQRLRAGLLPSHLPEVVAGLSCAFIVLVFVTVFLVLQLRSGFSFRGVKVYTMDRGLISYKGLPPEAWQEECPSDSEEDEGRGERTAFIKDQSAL

SMILES: CCCCCCCCCCCCCCCC(=O)N[C@@H](CCCCNC(=O)CCCCCNC(=O)CCCC[C@@H]1SC[C@@H]2NC(=O)N[C@@H]21)C(=O)N[C@@H](CCCNC(=N)N)C(=O)N[C@H](C(=O)N[C@@H](CCCCN)C(=O)NC(CCCNC(=N)N)P(=O)(Oc1ccccc1)Oc1ccccc1)C(C)C (stereo partly drawn) [QUB-F1, N^α-Pal-N^ω-(Biotinyl-Ahx)-Lys-RVKR^P(OPh)2] (Palmitoyl-K([Ahx-Biotin])RVK-X1)
- irreversible binding to furin (visualized by streptavidin-HRP) (recombinant human furin [1]): irreversibly bound
- Ki (recombinant human furin [2]): 933 nM
- k3 (apparent first order rate constant) (recombinant human furin [2]): 0.016 (± 0.004) min^-1
- kinact/KI (recombinant human furin [2]; read-out: k3/Ki (overall second-order rate constant) (converted)): 342 M⁻¹ s⁻¹
- inhibition of trypsin (trypsin): did not
- inhibition of neutrophil elastase (neutrophil elastase): Neither compound was found to inhibit
